Results from PubChem BioAssay (NCI).
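In this assay, cells in 96-well plates receive the compound at five concentrations for 48 hours. Endpoints are linearly interpolated between the surrounding concentrations. Definition used: TGI = concentration required for complete inhibition of growth.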

Assays:
Assay in all cases: NCI tumour cell line growth inhibition, 48 h
[1] = system: MDA-MB-231 breast
[2] = system: RXF 393 renal
[3] = system: MALME-3M melanoma
[4] = system: NCI-H23 lung
[5] = system: NCI-H522 lung
[6] = system: UO-31 renal
[7] = system: KM12 colon
[8] = system: SK-MEL-28 melanoma
[9] = system: OVCAR-4 ovarian
[10] = system: 786-0 renal
[11] = system: UACC-62 melanoma
[12] = system: SN12C renal

## COc1ccc(Nc2c(C#N)c3n(c4ccccc24)c2ccccc2[n+]3C)cc1OC
[1]
  TGI: 8.25 µM
[2]
  TGI: 9.46 µM
[3]
  TGI: 15.8 µM
[4]
  TGI: 19.3 µM
[5]
  TGI: 16 µM
[6]
  TGI: 7.23 µM
[7]
  TGI: 41.7 µM
[8]
  TGI: 17.9 µM
[9]
  TGI: 32.5 µM
[10]
  TGI: 8.77 µM
[11]
  TGI: 12.5 µM

## Cc1cc2c(c(C(=O)NCCC(=O)O)c1)Oc1c(cc(C)cc1C(=O)NCCC(=O)O)S2
[1]
  TGI: > 100 µM
[2]
  TGI: > 100 µM
[3]
  TGI: > 100 µM
[4]
  TGI: > 100 µM
[5]
  TGI: > 100 µM
[12]
  TGI: > 100 µM
[7]
  TGI: > 100 µM
[8]
  TGI: > 100 µM
[9]
  TGI: > 100 µM
[10]
  TGI: > 100 µM
[11]
  TGI: > 100 µM

## Oc1ccccc1C(c1cc2c(cc1O)OCO2)N1CCOCC1 (centres undefined)
[1]
  TGI: 36.1 µM
[2]
  TGI: 30.8 µM
[3]
  TGI: 32.2 µM
[4]
  TGI: 46.6 µM
[5]
  TGI: 24.3 µM
[6]
  TGI: 29.3 µM
[12]
  TGI: 34.3 µM
[7]
  TGI: 43 µM
[8]
  TGI: 38.5 µM
[10]
  TGI: 22.6 µM
[11]
  TGI: 32.3 µM

## CC(=O)OCC1OC(N2C(=O)/C(=C\c3ccc(Cl)cc3)C(N)=Nc3ccccc32)C(OC(C)=O)C(OC(C)=O)C1OC(C)=O (centres undefined)
[1]
  TGI: 49.9 µM
[2]
  TGI: 27.9 µM
[3]
  TGI: 68.4 µM
[4]
  TGI: 68.7 µM
[6]
  TGI: 58.8 µM
[12]
  TGI: > 100 µM
[7]
  TGI: 39.5 µM
[8]
  TGI: 71.2 µM
[9]
  TGI: 66.4 µM
[10]
  TGI: 43.6 µM
[11]
  TGI: > 100 µM

## Cc1ccc2c(c1)nc(N)n[n+]2[O-]
[1]
  TGI: > 100 µM
[4]
  TGI: > 100 µM
[5]
  TGI: > 100 µM
[6]
  TGI: > 100 µM
[12]
  TGI: > 100 µM
[7]
  TGI: > 100 µM
[8]
  TGI: > 100 µM
[9]
  TGI: > 100 µM
[10]
  TGI: > 100 µM
[11]
  TGI: > 100 µM

## C=CCN(CC=C)Cn1c(=S)sc2ccccc21
[1]
  TGI: > 100 µM
[2]
  TGI: > 100 µM
[4]
  TGI: > 100 µM
[5]
  TGI: 37.7 µM
[6]
  TGI: > 100 µM
[12]
  TGI: > 100 µM
[7]
  TGI: > 100 µM
[8]
  TGI: > 100 µM
[9]
  TGI: > 100 µM
[10]
  TGI: > 100 µM
[11]
  TGI: > 100 µM

## Cc1c(/C=N\NC(=S)N2CCN(C(=S)N/N=C\c3c(C)n(C)n(-c4ccccc4)c3=O)CC2)c(=O)n(-c2ccccc2)n1C
[1]
  TGI: 73.9 µM
[2]
  TGI: > 100 µM
[3]
  TGI: > 100 µM
[4]
  TGI: > 100 µM
[5]
  TGI: > 100 µM
[6]
  TGI: > 100 µM
[7]
  TGI: > 100 µM
[9]
  TGI: > 100 µM
[10]
  TGI: > 100 µM
[11]
  TGI: > 100 µM

## CC(C)(C)C(=O)C(CC(=O)c1ccccc1)C(=O)C(C)(C)C
[1]
  TGI: > 100 µM
[3]
  TGI: > 100 µM
[4]
  TGI: > 100 µM
[5]
  TGI: > 100 µM
[6]
  TGI: > 100 µM
[12]
  TGI: > 100 µM
[7]
  TGI: > 100 µM
[8]
  TGI: > 100 µM
[9]
  TGI: > 100 µM
[10]
  TGI: > 100 µM

## O=c1oc2ccccc2c(O)c1C(c1cc(OCc2ccccc2)cc(OCc2ccccc2)c1)c1c(O)c2ccccc2oc1=O
[1]
  TGI: 34.5 µM
[2]
  TGI: > 52 µM
[4]
  TGI: 23.1 µM
[5]
  TGI: 37.9 µM
[6]
  TGI: 19.9 µM
[12]
  TGI: 21.3 µM
[7]
  TGI: 14.7 µM
[8]
  TGI: 51.8 µM
[9]
  TGI: 68.4 µM
[10]
  TGI: 31.7 µM
[11]
  TGI: 15.7 µM

## C/C(=N\NC(=S)NC(C)C)c1nc2ncccc2[nH]1
[1]
  TGI: > 100 µM
[2]
  TGI: > 100 µM
[3]
  TGI: > 100 µM
[5]
  TGI: > 76.3 µM
[6]
  TGI: 44.9 µM
[12]
  TGI: > 100 µM
[7]
  TGI: > 100 µM
[8]
  TGI: > 100 µM
[9]
  TGI: > 100 µM
[10]
  TGI: > 100 µM
[11]
  TGI: 98.7 µM

## CCN(CC)CCn1c2cc3c(cc2c(=O)c2cccnc21)OCCO3
[1]
  TGI: > 10 µM
[2]
  TGI: > 10 µM
[3]
  TGI: > 10 µM
[4]
  TGI: > 10 µM
[5]
  TGI: > 10 µM
[12]
  TGI: > 10 µM
[7]
  TGI: > 10 µM
[8]
  TGI: > 10 µM
[9]
  TGI: > 10 µM
[10]
  TGI: > 10 µM
[11]
  TGI: > 10 µM

## CO[C@@H](C(=O)OC1C=CC2(CC1)C(=O)N(C)c1ccccc12)c1ccccc1 (some centres undefined)
[1]
  TGI: > 100 µM
[4]
  TGI: > 100 µM
[6]
  TGI: > 100 µM
[12]
  TGI: > 100 µM
[7]
  TGI: > 100 µM
[8]
  TGI: > 100 µM
[9]
  TGI: > 100 µM
[10]
  TGI: > 100 µM
[11]
  TGI: > 100 µM

## Cc1c(Cl)cccc1NC(=O)C(=O)C1C(=O)CC(C)(C)CC1=O
[2]
  TGI: > 100 µM
[3]
  TGI: > 100 µM
[4]
  TGI: > 100 µM
[5]
  TGI: > 100 µM
[6]
  TGI: > 100 µM
[12]
  TGI: > 100 µM
[7]
  TGI: > 100 µM
[8]
  TGI: > 100 µM
[9]
  TGI: > 100 µM
[10]
  TGI: > 100 µM
[11]
  TGI: > 100 µM

## O=C1CC2(C[C@@H]3CCCCCCCCC[C@@H](C3)C2)N1 (some centres undefined)
[2]
  TGI: 30.9 µM
[3]
  TGI: 24.5 µM
[4]
  TGI: 31.3 µM
[5]
  TGI: 33.1 µM
[6]
  TGI: 27.8 µM
[12]
  TGI: 30.8 µM
[7]
  TGI: 34.6 µM
[8]
  TGI: 31.5 µM
[9]
  TGI: 36.3 µM
[10]
  TGI: 30.4 µM
[11]
  TGI: 30.3 µM

## CCOC(=O)c1c(NC(=O)c2ccccc2)sc2c1CCCC2
[1]
  TGI: > 100 µM
[2]
  TGI: > 100 µM
[3]
  TGI: > 100 µM
[4]
  TGI: > 100 µM
[6]
  TGI: > 100 µM
[12]
  TGI: > 100 µM
[7]
  TGI: > 100 µM
[8]
  TGI: > 100 µM
[10]
  TGI: > 100 µM
[11]
  TGI: > 100 µM
